Active and inactive are the calls of the source. The calls are words filed in the database; no cut-off is given here. Numbered stars: 1 amine (or outer) side, 2 acyl side, 3 side chain; on linkers, the order of the positions; unused ones are H or OH. Bridge positions count the residues as written; N and C are the ends. Square brackets hold non-standard residues; d marks the D form. Peptide text beside a SMILES is read from it. N(2-Aminoethyl)Gly = O=C(CN(CCN[*:3])[*:1])[*:2]; CO = O=C([*:1])[*:2]; Nlys = NCCCCNCC(=O)O
Key:
Type in all cases: cell-based
THP-1 = experiment: Cytotoxicity against human THP1 cells assessed as cell death
[1] = molecular target: C-C chemokine receptor type 2 (Homo sapiens) (UniProt P41597); experiment: Binding affinity to CCR2 in human THP1 cells assessed as inhibition of SDF1-mediated monocyte migration after 30 mins by Transwell assay; settings: THP-1
C-C chemokine receptor type 2 (Homo sapiens), sequence (P41597 whole entry, looked up): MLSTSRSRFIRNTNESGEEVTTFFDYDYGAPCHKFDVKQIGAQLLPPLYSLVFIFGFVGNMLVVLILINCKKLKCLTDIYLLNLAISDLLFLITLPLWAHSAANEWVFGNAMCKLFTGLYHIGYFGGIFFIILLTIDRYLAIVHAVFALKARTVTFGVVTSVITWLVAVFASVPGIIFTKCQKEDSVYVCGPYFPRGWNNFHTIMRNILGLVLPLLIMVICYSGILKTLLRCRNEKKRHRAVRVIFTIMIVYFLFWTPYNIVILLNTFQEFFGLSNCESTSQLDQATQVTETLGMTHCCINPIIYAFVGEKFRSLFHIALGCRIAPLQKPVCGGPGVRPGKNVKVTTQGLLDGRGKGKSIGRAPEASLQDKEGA

[2] = molecular target: C-C chemokine receptor type 2 (Homo sapiens) (UniProt P41597); experiment: Binding affinity to CCR2 in human THP1 cells assessed as inhibition of MCP1-mediated monocyte migration after 30 mins by Transwell assay relative to untreated control; settings: THP-1
[3] = molecular target: C-C chemokine receptor type 2 (Homo sapiens) (UniProt P41597); experiment: Binding affinity to CCR2 in human THP1 cells assessed as inhibition of monocyte migration after 30 mins by Transwell assay; settings: THP-1
[4] = molecular target: C-C chemokine receptor type 2 (Homo sapiens) (UniProt P41597); experiment: Binding affinity to CCR2 in human THP1 cells assessed as inhibition of MCP1-mediated monocyte migration at 10 uM after 30 mins by Transwell assay relative to untreated control; settings: THP-1

Row | Compound | inhibition [2] | inhibition [4] | also measured
1 | CC[C@H](C)[C@H](NC(=O)[C@H](CC(C)C)NC(=O)[C@@H](N)C(C)C)C(=O)N[C@@H](CC(C)C)C(=O)O (H-VLIL-OH) |  | inactive | 
2 | CC[C@H](C)[C@H](NC(=O)[C@H](CC(C)C)NC(=O)[C@@H](NC(=O)CN1CCCCNC(=O)NCCNCC(=O)N[C@@H](CCSC)C(=O)N[C@@H](CC(C)C)C1=O)C(C)C)C(=O)N[C@@H](CC(C)C)C(N)=O (H-[N(2-Aminoethyl)Gly]ML[Nlys]VLIL-NH2; linker 1-4 via CO) | inactive |  | 
3 | H-LVVLIL-OH |  | inactive | 

Second part, led by results:

Row | inhibition [2] | inhibition [4] | Compound | also measured
4 | Active |  | CC[C@H](C)[C@@H]1NC(=O)[C@H](CC(C)C)NC(=O)CN(C(=O)[C@@H](NC(=O)[C@H](CC(C)C)NC(=O)[C@@H](N)CCSC)C(C)C)CCNC(=O)NCCCCN(CC(N)=O)C1=O (H-MLV[N(2-Aminoethyl)Gly]LI[Nlys]-NH2; linker 4-7 via CO) | Activity (THP-1): Non-toxic; inhibition [1]: inactive; inhibition [3]: inactive
5 |  | Active | H-MLVVLIL-OH | 
6 | inactive |  | CC[C@H](C)[C@H](NC(=O)CN1CCCCNC(=O)NCCN(C(=O)[C@@H](N)CCSC)CC(=O)N[C@@H](C(C)C)C(=O)N[C@@H](C(C)C)C1=O)C(=O)N[C@@H](CC(C)C)C(N)=O (H-M[N(2-Aminoethyl)Gly]VV[Nlys]IL-NH2; linker 2-5 via CO) | 
7 |  | inactive | H-VVLIL-OH | 
8 | inactive |  | CC[C@H](C)[C@H](NC(=O)[C@H](CC(C)C)NC(=O)CN1CCCCNC(=O)NCCNCC(=O)N[C@@H](CC(C)C)C(=O)N[C@@H](C(C)C)C1=O)C(=O)N[C@@H](CC(C)C)C(N)=O (H-[N(2-Aminoethyl)Gly]LV[Nlys]LIL-NH2; linker 1-4 via CO) | 
